Test results reported in patent US11236106B2, “Cycloalkane-1,3-diamine derivative” (Daiichi Sankyo Company, Limited, priority 2018, dated 2022).
Structures can show the parent of a compound that is named as a salt. Where two headings read alike, the source gives them in different places.

Target: T1, menin and MLL (menin, Flag tagged; biotinylated MLL1 peptide 1-46aa) (Homo sapiens, UniProt O00255)
T1 sequence (O00255 1-610): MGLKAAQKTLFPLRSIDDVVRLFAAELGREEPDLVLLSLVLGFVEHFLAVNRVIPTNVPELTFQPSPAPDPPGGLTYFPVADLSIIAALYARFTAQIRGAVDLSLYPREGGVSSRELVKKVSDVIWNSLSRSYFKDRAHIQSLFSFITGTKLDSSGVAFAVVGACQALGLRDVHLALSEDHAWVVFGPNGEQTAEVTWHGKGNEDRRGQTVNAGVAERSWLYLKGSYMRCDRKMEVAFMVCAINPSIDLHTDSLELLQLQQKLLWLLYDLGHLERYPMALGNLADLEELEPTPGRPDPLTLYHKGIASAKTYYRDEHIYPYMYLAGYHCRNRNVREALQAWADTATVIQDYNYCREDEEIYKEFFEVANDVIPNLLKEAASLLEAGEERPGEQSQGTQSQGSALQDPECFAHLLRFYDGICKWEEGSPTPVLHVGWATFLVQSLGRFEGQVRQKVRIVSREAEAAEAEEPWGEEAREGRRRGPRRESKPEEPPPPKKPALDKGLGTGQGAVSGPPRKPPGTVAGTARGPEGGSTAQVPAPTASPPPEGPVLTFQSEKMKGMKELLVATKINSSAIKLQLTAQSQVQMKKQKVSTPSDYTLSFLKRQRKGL
Assay: biochemical

[1] = cell free IC50 (nM), 1 nM menin, 10 nM biotinylated MLL1 peptide, AlphaLISA

Procedure: Then, the fluorescence signal by AlphaLISA (registered trademark, PerkinElmer Co., Ltd.) was measured using a plate reader (PerkinElmer Co., Ltd., EnVisionXcite).

Question: With `O=C1CCC(c2ccc(CN[C@H]3CCC[C@@H](Nc4ncnc5sc(CC(F)(F)F)cc45)C3)cc2)N1` (mixture of isomers) [Example 39, 5-[4-({[(1S,3R)-3-{[6-(2,2,2-trifluoroethyl)thieno[2,3-d]pyrimidin-4-yl[amino}cyclohexyl]amino}methyl)phenyl]pyrrolidin-2-one hydrochloride (diastereomer mixture)] as the compound, how does the IC50 [1] read?
Answer: Its IC50 is 2070 nM.

Question: With `CN(c1ncnc2sc(CC(F)(F)F)cc12)[C@@H]1CC[C@H](NCc2ccc(S(=O)(=O)N3CCCC(O)C3)cc2)C1` (mixture of isomers) [Example 57, l-[4-({[(1S,3R)-3-{methyl[6-(2,2,2trifluoroethyl)thieno[2,3-d]pyrimidin-4-yl]amino}cyclopentyl]amino}methyl)benzene-1-sulfonyl]piperidin-3-ol hydrochloride (diastereomer mixture)] as the compound, how does the IC50 [1] read?
Answer: Its IC50 is 61.2 nM.

Question: `COc1cc(-c2ccc(CN[C@H]3C[C@@H](O)[C@@H](N(C)c4ncnc5sc(CC(F)(F)F)cc45)C3)cc2)nnc1OC1CCCOC1` (mixture of isomers) [Example 108, (1R,2S,4R)-4-{[(4-{5-methoxy-6-[(oxan-3-yl)oxy]pyridazin-3-yl}phenyl)methyl]amino}-2-{methyl[6-(2,2,2-trifluoroethyl)thieno[2,3-d]pyrimidin-4-yl]amino}cyclopentan-1-ol hydrochloride] was tested. Which IC50 did it give?
Answer: The IC50 was 1.3 nM.

Question: With `COc1nc(N(C)[C@H]2C[C@@H](NCC3CC=C(c4cc(OC)c(OC)nn4)CC3)C[C@H]2O)c2cc(CC(F)(F)F)sc2n1` (mixture of isomers) [Example 125, (1R,2S,4R)-4-({[4-(5,6-dimethoxypyridazin-3-yl)cyclohex-3-en-1-yl]methyl}amino)-2-{[2-methoxy-6-(2,2,2-trifluoroethyl)thieno[2,3-d]pyrimidin-4-yl](methyl)amino}cyclopentan-1-ol hydrochloride] as the compound, how does the IC50 read?
Answer: Its IC50 is 1.5 nM.

Question: `COc1cncc(-c2ccc(CN[C@H]3C[C@@H](O)C[C@@H](Nc4ncnc5sc(CC(F)(F)F)cc45)C3)cc2)c1` (single isomer, unassigned) [Example 15A, Hydrochloride] was tested. Which IC50 [1] did it give?
Answer: Its IC50 is 21.6 nM.

Question: `COc1cncc(-c2ccc(CN[C@@H]3C[C@H](O)C[C@H](Nc4ncnc5sc(CC(F)(F)F)cc45)C3)cc2)c1` (single isomer, unassigned) [Example 15B, Hydrochloride] was tested. Which IC50 [1] did it give?
Answer: Its IC50 is 403 nM.

Question: How did the IC50 [1] turn out when `COc1cncc(-c2ccc(CN[C@H]3C[C@@H](Nc4ncnc5sc(CC(F)(F)F)cc45)C[C@@H](C(=O)N(C)C)C3)cc2)c1` (single isomer, unassigned) [Example 17A, Hydrochloride] was run?
Answer: The IC50 was 2260 nM.

Question: For `COc1cncc(-c2ccc(CN[C@@H]3C[C@H](Nc4ncnc5sc(CC(F)(F)F)cc45)C[C@H](C(=O)N(C)C)C3)cc2)c1` (single isomer, unassigned) [Example 17B, Hydrochloride], which IC50 [1] is on record?
Answer: Its IC50 is 13.3 nM.

Question: With `N#Cc1cc2cc(CN[C@@H]3CC[C@@H](Nc4ncnc5sc(CC(F)(F)F)cc45)C3)ccc2[nH]1` [Example 1, 5-({[(1R,3R)-3-{[6-(2,2,2-trifluoroethyl)thieno[2,3-d]pyrimidin-4-yl]amino}cyclopentyl]amino}methyl)-1H-indole-2-carbonitrile Hydrochloride] as the compound, how does the IC50 [1] read?
Answer: Its IC50 is 494 nM.

Question: Which IC50 [1] does the source give for `Cc1c(CN[C@H]2CC[C@@H](N(C)c3ncnc4sc(CC(F)(F)F)cc34)C2)ccc2c1cc(C#N)n2Cc1cn[nH]c1` [Example 2, 4-methyl-5-({[(1S,3R)-3-{methyl[6-(2,2,2-trifluoroethyl)thieno[2,3-d]pyrimidin-4-yl]amino}cyclopentyl]amino}methyl)-1-[(1H-pyrazol-4-yl)methyl]-1H-indole-2-carbonitrile Hydrochloride] here?
Answer: Its IC50 is 12.8 nM.

Question: `CN(c1ncnc2sc(CC(F)(F)F)nc12)[C@@H]1CC[C@H](NCc2ccc3[nH]c(C#N)cc3c2)C1` [Example 3, 5-({[(1S,3R)-3-{methyl[2-(2,2,2-trifluoroethyl)[1,3]thiazolo[5,4-d]pyrimidin-7-yl]amino}cyclopentyl]amino}methyl)-1H-indole-2-carbonitrile Hydrochloride] was tested. Which IC50 [1] did it give?
Answer: The IC50 was 81.8 nM.

Question: Which IC50 [1] does the source give for `CN(c1ncnc2cc(CC(F)(F)F)sc12)[C@@H]1CC[C@H](NCc2ccc3[nH]c(C#N)cc3c2)C1` [Example 4, 5-({[(1S,3R)-3-{methyl[6-(2,2,2-trifluoroethyl)thieno[3,2-d]pyrimidin-4-yl]amino}cyclopentyl]amino}methyl)-1H-indole-2-carbonitrile] here?
Answer: Its IC50 is 172 nM.

Question: `CN(c1ncnc2ccc(CC(F)(F)F)cc12)[C@@H]1CC[C@H](NCc2ccc(O)cc2)C1` [Example 5, 4-({[(1S,3R)-3-{methyl[6-(2,2,2-trifluoroethyl)quinazolin-4-yl]amino}cyclopentyl]amino}methyl)phenol Hydrochloride] was tested. Which IC50 [1] did it give?
Answer: The IC50 was 856 nM.

Question: How did the IC50 [1] turn out when `C=CC(=O)NCCCNC(=O)c1ccc(CN[C@H]2CC[C@@H](N(C)c3ncnc4sc(CC(F)(F)F)cc34)C2)cc1` [Example 6, 4-({[(1S,3R)-3-{methyl[6-(2,2,2-trifluoroethyl)thieno[2,3-d]pyrimidin-4-yl]amino}cyclopentyl]amino}methyl)-N-{3-[(prop-2-enoyl)amino]propyl}benzamide Hydrochloride] was run?
Answer: Its IC50 is 81.9 nM.

Question: Which IC50 [1] does the source give for `CN(c1ncnc2sc(CC(F)(F)F)cc12)[C@@H]1CC[C@H](NCc2ccc(NCc3ccccc3)cc2)C1` [Example 7, (1R,3S)—N^3-{[4-(benzylamino)phenyl]methyl}-N^1-methyl-N^1-[6-(2,2,2-trifluoroethyl)thieno[2,3-d]pyrimidin-4-yl]cyclopentane-1,3-diamine Hydrochloride] here?
Answer: Its IC50 is 151 nM.

Question: For `COc1cncc(Nc2ccc(CN[C@H]3CC[C@@H](N(C)c4ncnc5sc(CC(F)(F)F)cc45)C3)cc2)c1` [Example 8, (1R,3S)—N^3-({4-[(5-methoxypyridin-3-yl)amino]phenyl}methyl)-N^1-methyl-N^1-[6-(2,2,2-trifluoroethyl)thieno[2,3-d]pyrimidin-4-yl]cyclopentane-1,3-diamine Hydrochloride], which IC50 [1] is on record?
Answer: Its IC50 is 8.8 nM.

Question: With `COc1cncc(-c2ccc(CN[C@H]3CC[C@@H](N(C)c4ncnc5sc(CC6CC6)cc45)C3)cc2)c1` [Example 9, (1R,3S)—N^1-[6-(cyclopropylmethyl)thieno[2,3-d]pyrimidin-4-yl]-N^3-{[4-(5-methoxypyridin-3-yl)phenyl]methyl}-N^1-methylcyclopentane-1,3-diamine Hydrochloride] as the compound, how does the IC50 [1] read?
Answer: The IC50 was 22.2 nM.

Question: Which IC50 [1] does the source give for `O=C(NC1COC1)c1ccc(CN[C@H]2CCC[C@@H](Nc3ncnc4sc(CC(F)(F)F)cc34)C2)cc1` [Example 10, N-(oxetan-3-yl)-4-({[(1S,3R)-3-{[6-(2,2,2-trifluoroethyl)thieno[2,3-d]pyrimidin-4-yl]amino}cyclohexyl]amino}methyl)benzamide Hydrochloride] here?
Answer: Its IC50 is 199 nM.

Question: `CN(c1ncnc2sc(CC(F)(F)F)cc12)[C@@H]1CC[C@H](NCc2ccc(-c3ccc(=O)[nH]c3)cc2)C1` [Example 11, 5-[4-({[(1S,3R)-3-{methyl[6-(2,2,2-trifluoroethyl)thieno[2,3-d]pyrimidin-4-yl]amino}cyclopentyl]amino}methyl)phenyl]pyridin-2(1H)-one Hydrochloride] was tested. Which IC50 [1] did it give?
Answer: Its IC50 is 63.9 nM.

Question: `CN(c1ncnc2sc(CC(F)(F)F)cc12)[C@@H]1CC[C@H](NCc2ccc(Nc3cnn(C)c3)cc2)C1` [Example 12, (1R,3S)—N^1-methyl-N^3-({4-[(1-methyl-1H-pyrazol-4-yl)amino]phenyl}methyl)-N^1-[6-(2,2,2-trifluoroethyl)thieno[2,3-d]pyrimidin-4-yl]cyclopentane-1,3-diamine] was tested. Which IC50 [1] did it give?
Answer: Its IC50 is 33.8 nM.

Question: For `CN(c1ncnc2sc(CC(F)(F)F)cc12)[C@@H]1CC[C@H](NCc2ccc(-c3ccc(-c4ccc(Cl)nc4)nc3)cc2)C1` [Example 13, (1R,3S)—N^3-{[4-(6′-chloro[2,3′-bipyridine]-5-yl)phenyl]methyl}-N^1-methyl-N^1-[6-(2,2,2-trifluoroethyl)thieno[2,3-d]pyrimidin-4-yl]cyclopentane-1,3-diamine], which IC50 [1] is on record?
Answer: The IC50 was 7.6 nM.

Question: Which IC50 [1] does the source give for `CN(c1ncnc2sc(CC(F)(F)F)cc12)[C@@H]1CC[C@H](NCc2ccc(-c3cnc4ccoc4c3)cc2)C1` [Example 14, (1R,3S)—N^3-{[4-(furo[3,2-b]pyridin-6-yl)phenyl]methyl}-N^1-methyl-N^1-[6-(2,2,2-trifluoroethyl)thieno[2,3-d]pyrimidin-4-yl]cyclopentane-1,3-diamine Hydrochloride] here?
Answer: Its IC50 is 27.4 nM.

Question: `COc1cncc(-c2ccc(CN(C)[C@@H]3C[C@H](O)C[C@H](Nc4ncnc5sc(CC(F)(F)F)cc45)C3)cc2)c1` [Example 16, (1R,3S,5R)-3-[{[4-(5-methoxypyridin-3-yl)phenyl]methyl}(methyl)amino]-5-{[6-(2,2,2-trifluoroethyl)thieno[2,3-d]pyrimidin-4-yl]amino}cyclohexan-1-ol] was tested. Which IC50 [1] did it give?
Answer: The IC50 was 1870 nM.

Question: For `COc1cncc(-c2ccc(CN[C@@H]3C[C@H](N(C)c4ncnc5sc(CC(F)(F)F)cc45)[C@H](O)[C@@H]3O)cc2)c1` [Example 20A, (1S,2R,3R,5S)-3-({[4-(5-methoxypyridin-3-yl)phenyl]methyl}amino)-5-{methyl[6-(2,2,2-trifluoroethyl)thieno[2,3-d]pyrimidin-4-yl]amino}cyclopentane-1,2-diol Hydrochloride], which IC50 [1] is on record?
Answer: Its IC50 is 3.9 nM.
